In PMC8528861, “Structural and functional analysis of target recognition by the lymphocyte adaptor protein LNK” (Nature Communications, 2021):
Where a SMILES comes first, the peptide text is derived from it. [ ]: non-standard residue; d: D form. pY = N[C@@H](Cc1ccc(OP(=O)(O)O)cc1)C(=O)O

Each compound was assayed against T1, LNK SH2 domain (Mus musculus, UniProt O09039) (assay: SPR competition assay (immobilised IL6ST pY757 peptide)). Conditions: not given.
T1 construct: DNA encoding the mouse LNK SH2 domain (residues 324–446) and an N-terminal NusA; NusA (N, cleaved yes); made in house; host or cells: E. coli (tuner (DE3), BL21(DE3) or C43)
T1 sequence (O09039 324-446): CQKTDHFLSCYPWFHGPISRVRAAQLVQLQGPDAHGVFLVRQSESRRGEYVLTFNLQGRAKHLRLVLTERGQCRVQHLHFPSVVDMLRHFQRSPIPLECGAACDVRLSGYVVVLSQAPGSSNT
Assay type: binding
Description: SH2 domains typically bind ligands with a specific preference for amino acids at the −2 to +5 positions, relative to phosphotyrosine. […] To determine the contribution of individual residues, we made a series of mutations within the JAK2 phosphopeptide, and measured their affinity for the LNK SH2 domain via a surface plasmon resonance (SPR) competition assay (Fig. 3). The LNK SH2 domain was incubated with increasing concentrations of mutant JAK2 pY813 peptides before being passed over a chip coated with an immobilised low affinity phosphopeptide derived from a site on the intracellular domain of the IL-6 receptor, IL6ST. […] The +2 residue was not mutated as the structure indicates its sidechain points towards solvent.
The LNK SH2 domain has been proposed to interact with a suite of phosphorylated sites on various signalling proteins[16]–[19],[32]. […] In addition, binding to the activation loops of JAK2 and IRK, and pY785 of JAK3 were also examined. […] Given that SH2 domains will bind to most phosphorylated sequences to some degree, in line with the literature on SH2 domains and their targets[33] we applied a threshold cut-off of 2000 nM, where an IC50 over this value indicates a physiologically irrelevant interaction.
SPR competition assays were performed on either a Biacore 4000 or 200 (GE Healthcare) in 10 mM HEPES (pH 7.4), 150 mM NaCl, 3.4 mM EDTA, 0.005% Tween 20 using a streptavidin coated chip and were regenerated in 50 mM NaOH, 1 M NaCl. A biotinylated peptide representing the IL6ST pY757 sequence was immobilised to the chip by passing over 1 μg/mL of peptide dissolved in 10 mM HEPES pH 7.4, 150 mM NaCl, 3.4 mM EDA, 0.005% Tween 20. 0.1–0.5 μM of WT LNK SH2 domain was pre-incubated with 2, 1, 0.5, 0.25, 0.125 or 0 mM phosphopeptides before being flowed over the chip for 240–720 seconds at 10–30 μL/min. Data was analysed using Prism, the response of LNK in the presence of the peptide was normalised to an LNK only control and then fitted as an IC50 curve via non-linear regression.

SMILES	IC50
CC(C)C[C@H](NC(=O)[C@H](C)NC(=O)[C@H](C)NC(=O)[C@@H](NC(=O)[C@H](CC(=O)O)NC(=O)[C@H](CCCNC(=N)N)NC(=O)[C@H](CC(C)C)NC(=O)[C@H](Cc1ccc(OP(=O)(O)O)cc1)NC(=O)[C@H](CCC(N)=O)NC(=O)CNC(=O)[C@H](CC(C)C)NC(=O)[C@@H](N)C(C)C)[C@@H](C)O)C(=O)O [MPL pY552] (H-VLGQ[pY]LRDTAAL-OH; N-terminus and C-terminus assumed)	> 10 µM
CC(C)C[C@H](NC(=O)[C@@H]1CCCN1C(=O)[C@H](CC(C)C)NC(=O)[C@H](Cc1ccc(OP(=O)(O)O)cc1)NC(=O)[C@H](CO)NC(=O)[C@H](Cc1c[nH]cn1)NC(=O)[C@H](CC(N)=O)NC(=O)[C@H](C)N)C(=O)N[C@@H](CO)C(=O)N[C@@H](Cc1ccc(O)cc1)C(=O)N[C@@H](Cc1c[nH]c2ccccc12)C(=O)N[C@@H](CCC(N)=O)C(=O)O [MPL pY626] (H-ANHS[pY]LPLSYWQ-OH)	4.89 µM

Same assay, conditions: mutant vs WT JAK2 pY813 peptide

fold decrease in affinity	SMILES
> 80 fold	CC(C)C[C@H](NC(=O)[C@H](CCCNC(=N)N)NC(=O)[C@H](Cc1ccc(OP(=O)(O)O)cc1)NC(=O)[C@H](CC(=O)O)NC(=O)[C@@H]1CCCN1C(=O)[C@@H](NC(=O)[C@@H](N)Cc1ccccc1)[C@@H](C)O)C(=O)N[C@@H](CC(C)C)C(=O)N[C@H](C(=O)N[C@@H](CCC(=O)O)C(=O)N[C@@H](CC(N)=O)C(=O)N[C@@H](CC(=O)O)C(=O)O)[C@@H](C)O [+1R] (H-FTPD[pY]RLLTEND-OH)
~ 25 fold	CC(C)C[C@H](NC(=O)[C@H](CCC(=O)O)NC(=O)[C@H](Cc1ccc(OP(=O)(O)O)cc1)NC(=O)[C@H](CC(=O)O)NC(=O)[C@@H]1CCCN1C(=O)[C@@H](NC(=O)[C@@H](N)Cc1ccccc1)[C@@H](C)O)C(=O)N[C@@H](Cc1ccccc1)C(=O)N[C@H](C(=O)N[C@@H](CCC(=O)O)C(=O)N[C@@H](CC(N)=O)C(=O)N[C@@H](CC(=O)O)C(=O)O)[C@@H](C)O [+3F] (H-FTPD[pY]ELFTEND-OH; N-terminus and C-terminus assumed)

Same assay, conditions: phosphopeptide competition assay; mean of at least two technical replicates from two, three or four independent experiments; read-out: IC50

SMILES	IC50
CC(C)C[C@H](NC(=O)[C@H](CS)NC(=O)CNC(=O)[C@H](CC(N)=O)NC(=O)[C@H](CCC(N)=O)NC(=O)[C@H](Cc1ccc(OP(=O)(O)O)cc1)NC(=O)[C@H](CC(C)C)NC(=O)[C@H](Cc1c[nH]c2ccccc12)NC(=O)[C@H](CC(C)C)NC(=O)[C@@H](N)CCC(N)=O)C(=O)N[C@@H](Cc1c[nH]c2ccccc12)C(=O)N[C@@H](Cc1c[nH]c2ccccc12)C(=O)O [EPOR pY309] (H-QLWL[pY]QNGCLWW-OH; N-terminus and C-terminus assumed)	> 10 µM
CSCC[C@H](NC(=O)[C@H](CCC(N)=O)NC(=O)[C@H](CC(C)C)NC(=O)[C@H](CCC(N)=O)NC(=O)[C@H](CO)NC(=O)[C@H](CCC(=O)O)NC(=O)[C@H](Cc1ccc(OP(=O)(O)O)cc1)NC(=O)[C@H](CCCNC(=N)N)NC(=O)[C@H](Cc1ccccc1)NC(=O)[C@H](CCC(N)=O)NC(=O)[C@H](CCCCN)NC(=O)[C@H](CCCCN)NC(=O)[C@@H](N)Cc1ccc(O)cc1)C(=O)O [FLT3 pY572] (H-YKKQFR[pY]ESQLQM-OH; N-terminus and C-terminus assumed)	> 10 µM
NC(=O)C[C@H](NC(=O)[C@H](CCC(=O)O)NC(=O)[C@H](Cc1ccc(O)cc1)NC(=O)[C@@H]1CCCN1C(=O)[C@H](CC(N)=O)NC(=O)[C@H](CO)NC(=O)[C@H](Cc1ccc(OP(=O)(O)O)cc1)NC(=O)[C@@H]1CCCN1C(=O)CNC(=O)[C@H](CC(=O)O)NC(=O)[C@@H](N)CO)C(=O)N[C@@H](CO)C(=O)O [EPOR pY485] (H-SDGP[pY]SNPYENS-OH; N-terminus and C-terminus assumed)	> 10 µM

The remaining lines, values ahead:

IC50	SMILES
> 10 µM	C[C@@H](O)[C@H](NC(=O)[C@@H](N)CCC(=O)O)C(=O)N[C@@H](CC(=O)O)C(=O)N[C@@H](Cc1ccc(OP(=O)(O)O)cc1)C(=O)N[C@@H](Cc1ccc(OP(=O)(O)O)cc1)C(=O)N[C@@H](CCCNC(=N)N)C(=O)N[C@@H](CCCCN)C(=O)NCC(=O)NCC(=O)N[C@@H](CCCCN)C(=O)NCC(=O)O [IRK pY1445/pY1446] (H-ETD[pY][pY]RKGGKG-OH; N-terminus and C-terminus assumed)
1.93 µM	CC[C@H](C)[C@H](NC(=O)[C@H](Cc1ccc(O)cc1)NC(=O)[C@@H](NC(=O)[C@H](Cc1ccc(OP(=O)(O)O)cc1)NC(=O)[C@H](CC(N)=O)NC(=O)[C@H](CC(N)=O)NC(=O)CN)C(C)C)C(=O)N[C@@H](CC(=O)O)C(=O)N1CCC[C@H]1C(=O)O [c-KIT pY568] (H-GNN[pY]VYIDP-OH)
> 10 µM	CC(C)C[C@H](NC(=O)[C@H](CC(N)=O)NC(=O)[C@@H](NC(=O)[C@H](Cc1ccc(OP(=O)(O)O)cc1)NC(=O)[C@H](CC(=O)O)NC(=O)[C@H](CCCNC(=N)N)NC(=O)[C@@H](N)CCC(=O)O)[C@@H](C)O)C(=O)N1CCC[C@H]1C(=O)N[C@@H](CO)C(=O)O [c-FMS pY923] (H-ERD[pY]TNLPS-OH; N-terminus and C-terminus assumed)
3.81 µM	CC[C@H](C)[C@H](NC(=O)[C@H](Cc1ccc(OP(=O)(O)O)cc1)NC(=O)[C@H](CCC(=O)O)NC(=O)[C@H](Cc1c[nH]cn1)NC(=O)CN)C(=O)N[C@@H](Cc1ccc(O)cc1)C(=O)N[C@H](C(=O)N[C@@H](CC(=O)O)C(=O)N1CCC[C@H]1C(=O)O)C(C)C [PDGFR pY572] (H-GHE[pY]IYVDP-OH)
> 10 µM	CC[C@H](C)[C@H](NC(=O)[C@H](C)N)C(=O)N[C@@H](CCC(=O)O)C(=O)N[C@H](C(=O)N[C@@H](CC(=O)O)C(=O)N[C@@H](CCCCN)C(=O)N[C@@H](CCC(=O)O)C(=O)N[C@@H](Cc1ccc(OP(=O)(O)O)cc1)C(=O)N[C@@H](Cc1ccc(O)cc1)C(=O)N[C@@H](CCCCN)C(=O)N[C@H](C(=O)N[C@@H](CCCCN)C(=O)N[C@@H](CCC(=O)O)C(=O)N1CCC[C@H]1C(=O)NCC(=O)O)C(C)C)[C@@H](C)O [JAK2 pY1007] (H-AIETDKE[pY]YKVKEPG-OH; N-terminus and C-terminus assumed)
> 10 µM	CSCC[C@H](NC(=O)[C@H](CC(=O)O)NC(=O)[C@H](CCC(N)=O)NC(=O)[C@H](C)N)C(=O)N[C@@H](Cc1ccc(OP(=O)(O)O)cc1)C(=O)N[C@@H](CCCNC(=N)N)C(=O)N[C@@H](CCCNC(=N)N)C(=O)N[C@@H](CC(C)C)C(=O)N[C@@H](CCC(N)=O)C(=O)N1CCC[C@H]1C(=O)N[C@@H](CO)C(=O)N[C@@H](CS)C(=O)O [MPL pY591] (H-AQDM[pY]RRLQPSC-OH; N-terminus and C-terminus assumed)
> 10 µM	CC[C@H](C)[C@H](NC(=O)[C@H](C)N)C(=O)N[C@@H](CCC(=O)O)C(=O)N[C@H](C(=O)N[C@@H](CC(=O)O)C(=O)N[C@@H](CCCCN)C(=O)N[C@@H](CCC(=O)O)C(=O)N[C@@H](Cc1ccc(OP(=O)(O)O)cc1)C(=O)N[C@@H](Cc1ccc(OP(=O)(O)O)cc1)C(=O)N[C@@H](CCCCN)C(=O)N[C@H](C(=O)N[C@@H](CCCCN)C(=O)N[C@@H](CCC(=O)O)C(=O)N1CCC[C@H]1C(=O)NCC(=O)O)C(C)C)[C@@H](C)O [JAK2 pY1007/pY1008] (H-AIETDKE[pY][pY]KVKEPG-OH; N-terminus and C-terminus assumed)
> 10 µM	CC(C)C[C@H](NC(=O)[C@@H]1CCCN1C(=O)[C@@H](N)CC(C)C)C(=O)N[C@@H](CO)C(=O)N[C@@H](Cc1ccc(OP(=O)(O)O)cc1)C(=O)N[C@@H](Cc1c[nH]c2ccccc12)C(=O)N[C@@H](CCC(N)=O)C(=O)N[C@@H](CCC(N)=O)C(=O)N1CCC[C@H]1C(=O)O [MPL pY631] (H-LPLS[pY]WQQP-OH; N-terminus and C-terminus assumed)
